Assays:
TDG [1] = target: T1, TDG (Homo sapiens, UniProt Q13569); test: TDG inhibitory activity of compounds in cells (caC-cmv-firefly luciferase reporter, HEK 293T TDG KO cells transfected with pCDNA4-TDG); type: cell-based; conditions: read-out: Inhibition rate on TDG activity
Description: Experimental Determination of TDG Inhibitory Activity of Compounds in Cells
The operation steps of this example are as follows:
(1) Preparation of Methylation Reporter Plasmid:
(a) SAM with a stock solution concentration of 32 mM was diluted with ultrapure water to 1600 μM;
(b) The reaction system was prepared according to the following ratio: 30 μl ultrapure water, 5 μl 10×NEBuffer 2, 5 μl diluted SAM, 1 μg pCpGL-CMV-firefly plasmid, 1 μl SssI methylase (4 U/μl); 50 μl in total, the reaction was carried out at 37° C. for 2 hours;
(c) The mixture was heated at 65° C. for 20 minutes. Then 0.2% SDS was added, the reaction was carried out at 80° C. for 10 min; and then 1 μl Proteinase K was added, the reaction was carried out at 50° C. for 1 h;
(d) The methylated plasmid was recovered with Dr. GenTLE® sedimentation aid (TAKARA).
(2) Preparation of 5fC/5caC pCpGL-CMV-Firefly Reporter Plasmid
(a) The following 10× reaction system was prepared:
(b) The reaction system was prepared according to the following ratio:
(c) The reaction was carried out at 37° C. for one hour;
(d) 24 μg Tet1 protein was added for the second time and the reaction was continued for one hour;
(e) SDS was added to a final concentration of 0.5%, 80° C., 10 minutes, then 1 μl Proteinase K was added, 55° C. overnight.
(f) The treated caC-cmv-firefly plasmid was recovered with Dr. GenTLE® sedimentation aid (TAKARA) and was quantified.
(3) Using the Luciferase Activity Assay Method to Detect the Inhibitory Rate of Small Molecule Compounds on Intracellular TDG Enzyme Activity
In a 96-well plate, the reaction system and operation flow of each well were as follows:
(a) 1 ng caC-cmv-firefly, Ing pCpGL-CMV-Relina and 150 ng pCDNA4-TDG or 150 ng pCDNA4-myc plasmid, were diluted to 75 ul Opti-MEM, mixed well and allowed to stand still for 5 minutes;
(b) 2 ul transfection reagent (Hieff Trans™ Liposomal transfection Reagent (0.5 ul/well, YEAEEN, Cat #40802)) was diluted in 100 ul Opti-MEM, mixed well and allowed to stand still for 5 minutes;
(c) 75 ul of (a) and (b) were mixed respectively, and allowed to stand still at room temperature for 20 minutes;
(d) HEK 293T TDG KO cells were digested with trypsin, the cells were collected and counted, and the suspension cell concentration was adjusted to 4×10^5/ml;
(e) 50 ul of the mixture (c) was added to each well, and at the same time 100 ul of the diluted cell suspension was added to the same well, and they were mixed well.
(f) After the cells adhering to the wall, different concentrations of small molecule compounds to be tested were added to each well.
(g) Incubation was performed in a 37° C. CO2 incubator for 72 hours. The supernatant was removed and the cells were quickly freezed at −80° C.
(h) Before detecting the luciferase activity, the cells to be tested were removed from −80° C. and allowed to stand still at room temperature for 30 minutes. Following the instructions of Dual-Glo® Luciferase Reagent (PROMEGA), the firefly fluorescence value and Renilla fluorescence value of each well were detected.
(i) The firefly fluorescence value was divided with the Renilla fluorescence value of each well; 96-well plate Z′ and experimental window was calculated by the ratio of transfected caC-cmv-firefly, pCpGL-CMV-Relina, pCDNA4-TDG plasmid mixture plus DMSO experimental group to transfected caC-cmv-firefly, pCpGL-CMV-Relina, pCDNA4-myc plasmid mixture plus DMSO experimental group, and the relative enzyme activity inhibition rate of each compound was calculated.
According to the biological method described in this example, the selected compounds of the present invention were analyzed, and the results are shown in Table 2. Among them, “+” in Table 2 refers to the compound's TDG inhibitory activity at a concentration of 10 μM≤25%; “++” refers to the compound's TDG inhibitory activity at a concentration of 10 μM>25%.

[2] = tested on: Lung cancer cell line Calu-1; test: Inhibition of the growth of Calu-1 cells (CellTiter-Glo, 72 hours); type: cell-based; conditions: Homo sapiens, 72 hours of culturing, read-out: Inhibitory activity on alu-1 cell growth IC50
Description: 14.2 Experimental Determination of Compound's Inhibitory Rate on the Growth of Calu-1 Cells
Lung cancer cell line Calu-1 was cultured in 90% McCoy's 5A medium (BI, 01-075-1ACS)+10% fetal bovine serum (Gibco, 10270106), placed in a CO2 incubator (37° C., 5% CO2, 95% air) for culturing. Calu-1 cells were digested with trypsin (Gibco, 12604-021) and seeded in a 384-well plate at a density of 500 cells per well. The medium was 50 μL and it was cultured overnight at 37° C. in an incubator. On the next day, different concentrations of test compounds were added, and the final concentration of DMSO was 0.1%. After 72 hours of culturing, the cells were taken out for test. The cell culture medium from the 384-well plate to be tested was removed, and fresh culture medium premixed with CTG was immediately added: the ratio of the culture medium to CellTiter-Glo® 2.0 reagent (Promega, G9243) was 2:1, 30 ul was added to each well. The plate was shaken at room temperature for 20 minutes, and then a multi-function plate reader (TECAN, Infinite 200 Pro) was used according to the reagent instructions to determine the cell survival.
According to the biological method described in this example, the selected compounds of the present invention were analyzed, and the results are shown in Table 1. Among them, “++” in Table 1 refers to the inhibitory activity on the growth of calu-1 cells with IC50≤5 μM; “+” refers to the inhibitory activity on the growth of calu-1 cells with IC50>5 μM.

TDG [3] = target: T1, TDG; test: Inhibition of TDG mismatch repair activity (fluorescent G·U double-stranded DNA probe T1-T2); type: biochemical; conditions: TDG 100 nM/L, preincubated with compound 37° C. 30 minutes; probe 30 nM; read-out: Inhibitory activity on TDG mismatch repair IC50
Description: 14.1 Experimental Determination of Compound's Inhibitory Rate on TDG Mismatch Repair Activity
(1) A double-stranded DNA probe T1-T2 containing uracil bases was synthesized. The nucleotide sequence of the T1 chain was: 5′-FAM-TAAUGTGAATGGAGCTGAAAT-biotin-3′; The nucleotide sequence of the T2 chain was 5′-ATTTCAGCTCCATTCACGTTA-3′. Using PCR annealing program, the T1 strand and T2 strand were complementary to form a double-stranded DNA probe T1-T2.
(2) The reaction system and steps for each well of a 96-well plate were as follows: a. TDG (100 nM/L) was mixed with different concentrations of compounds, and the mixture was incubated at 37° C. for 30 minutes. The composition of the reaction buffer was: 20 mM HEPES pH7.5, 100 mM NaCl, 0.2 mM EDTA, 2.5 mM MgCl2; b. The double-stranded DNA probe T1-T2 was added to the mixture to obtain a final volume of 100 μL, with a concentration of 30 nM, and the mixture was incubated at 25° C. for 30 min; c. 1 μL of streptavidin magnetic beads were added to the reaction solution and fully bound the biotin-labeled DNA for 1 hour; d. NaOH was added to the reaction solution to a final concentration of 200 mM, and the mixture was incubated at room temperature for 30 minutes; e. Under the action of a magnetic stand the streptavidin magnetic beads were adsorbed to the tube wall, the supernatant was transferred to a new 96-well plate, and placed in a Tecan microplate reader for fluorescence measurement. The parameter settings were: excitation wavelength 485 nm; emission wavelength 520 nm. A linear curve between fluorescence intensity and TDG concentration was constructed, R^2=0.9968, and the linear range was 0-50 nM/L;
According to the biological method described in this example, the selected compounds of the present invention were analyzed, and the results are shown in Table 1. Among them, “++” in Table 1 refers to the inhibitory activity for TDG mismatch repair with IC50≤5 μM; “+” refers to the inhibitory activity for TDG mismatch repair with IC50>5 μM.

T1 sequence (Q13569 whole entry): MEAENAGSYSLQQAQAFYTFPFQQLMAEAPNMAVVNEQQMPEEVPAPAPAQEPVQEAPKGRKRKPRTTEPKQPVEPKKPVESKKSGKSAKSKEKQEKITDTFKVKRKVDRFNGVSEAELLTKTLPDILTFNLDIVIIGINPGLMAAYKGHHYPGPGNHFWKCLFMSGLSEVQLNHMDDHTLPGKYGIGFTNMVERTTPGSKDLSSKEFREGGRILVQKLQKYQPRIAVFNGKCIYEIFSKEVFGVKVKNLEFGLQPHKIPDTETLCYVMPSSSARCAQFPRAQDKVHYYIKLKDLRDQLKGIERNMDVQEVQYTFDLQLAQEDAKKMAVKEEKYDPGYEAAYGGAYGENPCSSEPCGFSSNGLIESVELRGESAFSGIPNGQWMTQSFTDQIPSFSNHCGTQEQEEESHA

Structure (SMILES) | inhibition at 10 µM (TDG [1]) | IC50 [2] | IC50 (TDG [3])
O=C(CCN1CCc2ccccc21)c1ccc2c(c1)OCCO2 [Compound 11, 1-(2,3-dihydrobenzo[b][1,4]dioxin-6-yl)-3-(indoline-1-yl)propan-1-one] | < 25% | > 5 µM | > 5 µM
O=C(CCn1ccc(-c2ccc(F)cc2)cc1=O)c1ccc2c(c1)OCCO2 [Compound 18, 1-(3-(2,3-dihydrobenzo[b][1,4]dioxin-6-yl)-3-oxopropyl)-4-(4-fluorophenyl)pyridine-2(1H)-one] | > 25% | > 5 µM | ≤ 5 µM
O=C(CCN1Cc2ccc(Cl)cc2C1)c1ccc2c(c1)OCCO2 [Compound 4, 3-(5-chloroisoindolin-2-yl)-1-(2,3-dihydrobenzo[b][1,4]dioxin-6-yl)propan-1-one] | < 25% | > 5 µM | ≤ 5 µM
O=C(CCN1CCC(c2ccc(Cl)cc2)C1)c1ccc2c(c1)OCCO2 (stereo not drawn) [Compound 49, 3-(3-(4-chlorophenyl)pyrrolidin-1-yl)-1-(2,3-dihydrobenzo[b][1,4]dioxin-6-yl)propan-1-one] | < 25% | ≤ 5 µM | ≤ 5 µM
O=C(CCN1CCC(c2ccccc2)CC1)c1ccc2c(c1)OCCO2 [Compound 21, 1-(2,3-dihydrobenzo[b][1,4]dioxin-6-yl)-3-(4-phenylpiperidin-1-yl)propan-1-one] | < 25% | > 5 µM | ≤ 5 µM
O=C(CCN1C(=O)c2ccccc2C1=O)c1ccc2c(c1)OCCO2 [Compound 12, 2-(3-(2,3-dihydrobenzo[b][1,4]dioxin-6-yl)-3-oxopropyl)isoindole-1,3-dione] | < 25% | > 5 µM | > 5 µM
O=C(CCN1Cc2ccccc2C1)c1ccc2c(c1)CCO2 [Compound 34, 1-(2,3-dihydrobenzofuran-5-yl)-3-(isoindolin-2-yl)propan-1-one] | < 25% | > 5 µM | > 5 µM
O=C(CCNC1=NCc2ccccc21)c1ccc2c(c1)OCCO2 [Compound 26, 3-((1H-isoindo1-3-yl)amino)-1-(2,3-dihydrobenzo[b][1,4]dioxin-6-yl)propan-1-one] | < 25% | > 5 µM | > 5 µM
O=C(CCN1CCCc2ccccc21)c1ccc2c(c1)OCCO2 [Compound 14, 1-(2,3-dihydrobenzo[b][1,4]dioxin-6-yl)-3-(3,4-dihydrouinoline-1(2H)-yl)propan-1-one] | < 25% | > 5 µM | > 5 µM
O=C(CCN1Cc2ccc(Br)cc2C1)c1ccc2c(c1)OCCO2 [Compound 3, 3-(5-bromoisoindolin-2-yl)-1-(2,3-dihydrobenzo[b][1,4]dioxin-6-yl)propan-1-one] | < 25% | > 5 µM | ≤ 5 µM
O=C(CCNc1ccc2cnccc2c1)c1ccc2c(c1)OCCO2 [Compound 20, 1-(2,3-dihydrobenzo[b][1,4]dioxin-6-yl)-3-(isoquinolin-6-ylamino)propan-1-one] | < 25% | > 5 µM | > 5 µM
COc1ccc2cn(CCC(=O)c3ccc4c(c3)OCCO4)nc2c1 [Compound 24, 1-(2,3-dihydrobenzo[b][1,4]dioxin-6-yl)-3-(6-methoxy-2H-indazol-2-yl)propan-1-one] | < 25% | > 5 µM | > 5 µM
Nc1ccc2c(c1)CN(CCC(=O)c1ccc3c(c1)OCCO3)C2 [Compound 9, 3-(5-aminoisoindolin-2-yl)-1-(2,3-dihydrobenzo[b][1,4]dioxin-6-yl)propan-1-one] | > 25% | ≤ 5 µM | ≤ 5 µM
O=C(CCN1CCC(O)(c2ccc(F)cc2)C1)c1ccc2c(c1)OCCO2 (stereo not drawn) [Compound 43, 1-(2,3-dihydrobenzo[b][1,4]dioxin-6-yl)-3-(3-(4-fluorophenyl)-3-hydroxypyrrolidine-1-yl)propan-1-one] | < 25% | ≤ 5 µM | ≤ 5 µM
O=C(CCN1CC2C=CC(c3ccncc3)=CC2C1)c1ccc2c(c1)OCCO2 (stereo not drawn) [Compound 41, 1-(2,3-dihydrobenzo[b][1,4]dioxin-6-yl)-3-(5-(pyridin-4-yl)-1,3,3a,7αtetrahydro-2H-isoindolepyridin-2-yl)propan-1-one] | < 25% | > 5 µM | > 5 µM
N#Cc1ccc(C2CCN(CCC(=O)c3ccc4c(c3)OCCO4)C2)cc1 (stereo not drawn) [Compound 50, 4-(1-(3-(2,3-dihydrobenzo[b][1,4]dioxin-6-yl)-3-oxopropyl)pyrrolidin-3-yl)benzonitrile] | > 25% | ≤ 5 µM | ≤ 5 µM
O=C(CCN1Cc2ccccc2C1)c1ccc2c(c1)CCCN2 [Compound 30, 3-(isoindolin-2-yl)-1-(1,2,3,4-tetrahydroquinolin-6-yl)propan-1-one] | < 25% | > 5 µM | > 5 µM

Reference: patent US20220213070A1, “COMPOUNDS INHIBITING TDG ACTIVITY” (EPITAS BIOSCIENCES (SHANGHAI) CO., LTD., priority 2019, published 2022)
